The values below come from ChEMBL document CHEMBL6078654, “Modular Assembly of Heterotrifunctional Molecules Enabled by Iodosulfonylation of Allenes and Subsequent Amination” (J Med Chem, 2024).

The structures appear in SMILES notation. pIC50: −log10 of the molar value. The source made the active and inactive calls. The calls are words filed in the database; no cut-off is given here.

What is called pIC50 is −log10 of the IC50, conventionally taken in molar units. What is called IC50 is the midpoint of a concentration-inhibition curve.

One series relates to MDCK. As to the kind of experiment: Effect on TGR5 protein level in dog MDCK cells by Western blot analysis. Type of series: functional, cell-based. The note with it: Canis lupus familiaris. For orientation: Immunoblotting shows a protein as a band on a membrane.
For series [1], the system named is HCT-116. The experiment in a line: Effect on TGR5 protein level in human HCT-116 cells by Western blot analysis. It is filed as functional, cell-based.
The subject of series [2] is HCT-116. As to the kind of experiment: Antiproliferative activity against human HCT-116 cells assessed as inhibition of cell proliferation incubated for 24 hrs by CCK-8 assay. The note with it: HCT-116, 24 h. It is filed as functional, cell-based. (In general: Formazan colour is commonly taken as a measure of viable cells.)
Series [3] has as its system HepG2. As to the kind of experiment: Antiproliferative activity against human HepG2 cells assessed as inhibition of cell proliferation incubated for 24 hrs by CCK-8 assay. It is filed as functional, cell-based. The note with it: HepG2, 24 h.
The nature of series [4]: Antiproliferative activity against dog MDCK cells assessed as inhibition of cell proliferation incubated for 24 hrs by CCK-8 assay. It is filed as toxicity, cell-based, Canis lupus familiaris.
Series [5] has as its system HepG2. As to the kind of experiment: Effect on TGR5 protein level in human HepG2 cells by Western blot analysis. Type of series: functional, cell-based.
Series [6] relates to HCT-116. The experiment in a line: Cytotoxicity against human HCT-116 cells assessed as cell viability at 320 uM incubated for 24 hrs by CCK-8 assay. Type of series: toxicity, cell-based. The conditions noted are these: hct-116, 24 h.
Series [7] can be described thus: Drug localization in human HCT-116 cells Mitochondria assessed as increase fluorescence at 30 uM incubated for 30 mins by mito-tracker probe based inverted fluorescent microscopic analysis. It is filed as ADME. The conditions noted are these: hct-116, 0.5 h.
Series [8] in a line: Drug localization in human HCT-116 cells Endoplasmic reticulum assessed as increase fluorescence at 30 uM incubated for 30 mins by ER-tracker red probe based inverted fluorescent microscopic analysis. It is filed as ADME, subcellular. The note with it: hct-116, 0.5 h.
Series [9] is described as follows: Photophysical property of the compound assessed as maximum fluorescent emission peak at 0.03125 to 4 uM by fluorescence spectrophotometric analysis. The note with it: dose 0.03125-4 µM. Type of series: physicochemical.
Series [10] in a line: Drug localization in human HCT-116 cells Lysosome assessed as increase fluorescence at 30 uM incubated for 30 mins by lyso-tracker probe based inverted fluorescent microscopic analysis. The conditions noted are these: hct-116, 0.5 h. Type of series: ADME, subcellular.
Series [11] relates to HCT-116. As to the kind of experiment: Cytotoxicity against human HCT-116 cells assessed as cell viability upto 80 uM incubated for 24 hrs by CCK-8 assay. It is filed as toxicity, cell-based. The conditions noted are these: hct-116, 24 h.

As to `C=C(C(NCCNC(=O)CC[C@@H](C)[C@H]1CC[C@H]2[C@@H]3CC[C@@H]4C[C@H](O)CC[C@]4(C)[C@H]3CC[C@]12C)c1ccc(C(=O)OCCOCCOCCOC(=O)O[C@H]2c3cc4c(cc3[C@@H](c3cc(OC)c(OC)c(OC)c3)[C@H]3C(=O)OC[C@@H]32)OCO4)cc1)S(=O)(=O)c1cccc2c(N(C)C)cccc12` (some centres not stated), the result in the series on MDCK, in the series with HCT-116 [1] and with HepG2 [5] was Active. The pIC50 in the series on HCT-116 [2] is 5.26; in the series with HepG2 [3], 5.68. Besides, the IC50 at 24 h in series [4] is 14.6 µM.

With `C=C(C(NCCOC(=O)C(C)c1ccc(CC(C)C)cc1)c1ccc(C(=O)OC)cc1)S(=O)(=O)c1cccc2c(N(C)C)cccc12` (configuration not stated), the figures for the Activity result (in the series with HCT-116 [6]; in series [9]) were “Non-toxic” and “Active”, respectively. For the same compound, the Drug uptake result is recorded as “Not_active” in series [7], “Active” in series [8] and “Not_active” in [10].

On to `C=C(C(NCCNC(=O)C(C)c1ccc(CC(C)C)cc1)c1ccc(C(=O)OC)cc1)S(=O)(=O)c1cccc2c(N(C)C)cccc12` (configuration not stated), for which the Activity entry in the series with HCT-116 [11] is recorded as “Toxic”.
